Data as given in patent US8765940B2 (priority 2009, dated 2014).

Molecular target: PI3Kδ (Homo sapiens (Human), UniProt O00329)
Assay type: biochemical
Details: PI3Kδ Alphascreen assay
Description: A PI3K Alphascreen® assay (PerkinElmer, Waltham, Mass.) was used to measure the activity of a panel of four phosphoinositide 3-kinases: PI3Kα, PI3Kβ, PI3Kγ, and PI3Kδ. Enzyme reaction buffer was prepared using sterile water (Baxter, Deerfield, Ill.) and 50 mM Tris HCl pH 7, 14 mM MgCl2, 2 mM sodium cholate, and 100 mM NaCl. 2 mM DTT was added fresh the day of the experiment. The Alphascreen buffer was made using sterile water and 10 mM Tris HCl pH 7.5, 150 mM NaCl, 0.10% Tween 20, and 30 mM EDTA. 1 mM DTT was added fresh the day of the experiment. Compound source plates used for this assay were 384-well Greiner clear polypropylene plates containing test compounds at 5 mM and diluted 1:2 over 22 concentrations. Columns 23 and 24 contained only DMSO as these wells comprised the positive and negative controls, respectively. Source plates were replicated by transferring 0.5 uL per well into 384-well Optiplates (PerkinElmer, Waltham, Mass.).
Each PI3K isoform was diluted in enzyme reaction buffer to 2× working stocks. PI3Kα was diluted to 1.6 nM, PI3Kβ was diluted to 0.8 nM, PI3Kγ was diluted to 15 nM, and PI3Kδ was diluted to 1.6 nM. PI(4,5)P2 (Echelon Biosciences, Salt Lake City, Utah) was diluted to 10 μM and ATP was diluted to 20 μM. This 2× stock was used in the assays for PI3Kα and PI3Kβ. For assay of PI3Kγ and PI3Kδ, PI(4,5)P2 was diluted to 10 μM and ATP was diluted to 8 μM to prepare a similar 2× working stock. Alphascreen reaction solutions were made using beads from the anti-GST Alphascreen kit (PerkinElmer, Waltham, Mass.). Two 4× working stocks of the Alphascreen reagents were made in Alphascreen reaction buffer. In one stock, biotinylated-IP4 (Echelon Biosciences, Salt Lake City, Utah) was diluted to 40 nM and streptavadin-donor beads were diluted to 80 μg/mL. In the second stock, PIP3-binding protein (Echelon Biosciences, Salt Lake City, Utah) was diluted to 40 nM and anti-GST-acceptor beads were diluted to 80 μg/mL.
Using a 384-well Multidrop (Titertek, Huntsville, Ala.), 10 μL/well of 2× enzyme stock was added to columns 1-24 of the assay plates for each isoform. 10 μL/well of the appropriate substrate 2× stock (containing 20 μM ATP for the PI3Kα and β assays and containing 8 μM ATP for the PI3Kγ and δ assays) was then added to Columns 1-24 of all plates. Plates were then incubated at room temperature for 20 minutes. In the dark, 10 μL/well of the donor bead solution was added to columns 1-24 of the plates to quench the enzyme reaction. The plates were incubated at room temperature for 30 minutes. Still in the dark, 10 μL/well of the acceptor bead solution was added to columns 1-24 of the plates. The plates were then incubated in the dark for 1.5 hours. The plates were read on an Envision multimode Plate Reader (PerkinElmer, Waltham, Mass.) using a 680 nm excitation filter and a 520-620 nm emission filter.

Sequence of PI3Kδ (O00329 whole entry): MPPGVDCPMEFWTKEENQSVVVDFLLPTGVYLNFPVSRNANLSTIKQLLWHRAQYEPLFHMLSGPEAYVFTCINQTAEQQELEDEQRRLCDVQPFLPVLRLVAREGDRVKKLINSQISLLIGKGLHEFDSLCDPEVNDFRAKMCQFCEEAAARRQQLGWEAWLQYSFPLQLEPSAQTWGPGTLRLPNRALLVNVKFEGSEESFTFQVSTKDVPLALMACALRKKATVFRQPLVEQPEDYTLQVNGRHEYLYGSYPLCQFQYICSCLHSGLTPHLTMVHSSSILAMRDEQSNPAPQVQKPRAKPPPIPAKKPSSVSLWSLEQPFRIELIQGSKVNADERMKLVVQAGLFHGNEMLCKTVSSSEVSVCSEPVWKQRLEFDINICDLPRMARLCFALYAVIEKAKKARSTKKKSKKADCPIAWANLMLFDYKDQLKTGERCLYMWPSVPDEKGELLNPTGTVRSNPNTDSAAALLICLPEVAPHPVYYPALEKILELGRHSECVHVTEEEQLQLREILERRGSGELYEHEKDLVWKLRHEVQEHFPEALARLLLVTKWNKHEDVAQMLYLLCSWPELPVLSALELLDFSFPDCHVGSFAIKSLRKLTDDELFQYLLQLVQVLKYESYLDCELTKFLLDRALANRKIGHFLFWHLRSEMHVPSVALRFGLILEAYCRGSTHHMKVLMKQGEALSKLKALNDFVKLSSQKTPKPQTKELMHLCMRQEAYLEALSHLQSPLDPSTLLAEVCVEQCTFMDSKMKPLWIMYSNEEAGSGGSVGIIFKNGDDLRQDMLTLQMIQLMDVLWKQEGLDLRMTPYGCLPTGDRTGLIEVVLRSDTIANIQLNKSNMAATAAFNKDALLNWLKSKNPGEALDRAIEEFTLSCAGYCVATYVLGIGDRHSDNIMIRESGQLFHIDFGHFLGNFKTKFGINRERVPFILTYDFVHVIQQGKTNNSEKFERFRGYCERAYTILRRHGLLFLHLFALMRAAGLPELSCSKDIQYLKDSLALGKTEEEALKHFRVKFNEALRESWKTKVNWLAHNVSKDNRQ
Sequence of PI3Kδ (P27986 whole entry partner): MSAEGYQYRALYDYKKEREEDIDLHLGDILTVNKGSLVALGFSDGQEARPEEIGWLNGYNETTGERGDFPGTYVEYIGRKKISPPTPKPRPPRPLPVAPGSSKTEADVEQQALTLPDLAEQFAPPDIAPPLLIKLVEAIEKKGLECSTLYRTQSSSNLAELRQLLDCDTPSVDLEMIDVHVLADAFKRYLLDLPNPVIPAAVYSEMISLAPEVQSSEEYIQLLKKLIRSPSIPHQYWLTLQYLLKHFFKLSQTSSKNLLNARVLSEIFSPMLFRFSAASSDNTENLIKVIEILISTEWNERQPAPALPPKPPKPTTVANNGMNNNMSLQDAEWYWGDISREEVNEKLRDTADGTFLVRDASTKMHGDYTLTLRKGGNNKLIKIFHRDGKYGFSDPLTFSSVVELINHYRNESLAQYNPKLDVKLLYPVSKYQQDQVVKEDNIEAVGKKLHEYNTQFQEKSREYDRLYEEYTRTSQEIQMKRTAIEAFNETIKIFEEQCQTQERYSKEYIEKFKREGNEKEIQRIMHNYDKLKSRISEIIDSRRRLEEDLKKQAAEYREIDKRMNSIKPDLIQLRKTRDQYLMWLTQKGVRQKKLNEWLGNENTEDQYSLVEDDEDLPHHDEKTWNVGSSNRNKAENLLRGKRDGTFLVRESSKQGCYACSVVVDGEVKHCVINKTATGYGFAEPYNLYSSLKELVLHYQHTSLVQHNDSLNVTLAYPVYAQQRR

| SMILES | Ki [nM] |
| --- | --- |
| Cc1c(-c2ccccc2F)nc2ccccc2c1N1CC(C)(C)c2ccc(N3CCOCC3)cc21 [4-(3,3-dimethyl-6-(4-morpholinyl)-2,3-dihydro-1H-indol-1-yl)-2-(2-fluorophenyl)-3-methylquinoline] | 47 |
| COc1cc(OC)c2nc(C)c(C)c(N3CC(C)(C)c4ccc(N5CCOCC5)cc43)c2c1 [4-(3,3-dimethyl-6-(4-morpholinyl)-2,3-dihydro-1H-indol-1-yl)-6,8-dimethoxy-2,3-dimethylquinoline] | 3970 |
| Cc1c(-c2ccccc2F)nc2cc(F)ccc2c1N1CC(C)(C)c2ccc(N3CCOCC3)cc21 [4-(3,3-dimethyl-6-(4-morpholinyl)-2,3-dihydro-1H-indol-1-yl)-7-fluoro-2-(2-fluorophenyl)-3-methylquinoline] | 197 |
| Cc1c(N2CCCCC2)nc2cc(F)cc(F)c2c1N1CC(C)(C)c2ccc(N3CCOCC3)cc21 [4-(3,3-dimethyl-6-(4-morpholinyl)-2,3-dihydro-1H-indol-1-yl)-5,7-difluoro-3-methyl-2-(1-piperidinyl)quinoline] | 73.7 |
| Cc1c(C(F)(F)F)nc2ccc(Cl)cc2c1N1CC(C)(C)c2ccc(N3CCOCC3)cc21 [6-chloro-4-(3,3-dimethyl-6-(4-morpholinyl)-2,3-dihydro-1H-indol-1-yl)-3-methyl-2-(trifluoromethyl)quinoline] | 985 |
| Cc1c(-c2ccccn2)nc2cc(F)ccc2c1N1CC2(CCOCC2)c2nc(N)c(N3CCOCC3)cc21 [1′-(7-fluoro-3-methyl-2-(2-pyridinyl)-4-quinolinyl)-6′-(4-morpholinyl)-1′,2,2′,3,5,6-hexahydrospiro[pyran-4,3′-pyrrolo[3,2-b]pyridin]-5′-amine] | 29 |
| COc1cc2nc(C)c(C)c(N3CC(C)(C)c4ccc(N5CCOCC5)c(C)c43)c2cc1Cl [6-chloro-7-methoxy-2,3-dimethyl-4-(3,3,7-trimethyl-6-(4-morpholinyl)-2,3-dihydro-1H-indol-1-yl)quinoline] | 3960 |
| COc1ccccc1-c1cc(N2CC(C)(C)c3ccc(N4CCOCC4)cc32)c2cc(Cl)ccc2n1 [6-chloro-4-(3,3-dimethyl-6-(4-morpholinyl)-2,3-dihydro-1H-indol-1-yl)-2-(2-methoxyphenyl)quinoline] | 5560 |
| Cc1c(-c2cccc(F)c2)nc2ncccc2c1N1CC2(CCOCC2)c2ncc(N3CCOCC3)cc21 [1′-(2-(3-fluorophenyl)-3-methyl-1,8-naphthyridin-4-yl)-6′-(4-morpholinyl)-1′,2,2′,3,5,6-hexahydrospiro[pyran-4,3′-pyrrolo[3,2-b]pyridine]] | 27.8 |
| Cc1c(-c2ccccn2)nc2cc(F)ccc2c1N1CC2(CCS(=O)(=O)CC2)c2ccc(N3CCOCC3)cc21 [1-(7-fluoro-3-methyl-2-(2-pyridinyl)-4-quinolinyl)-6-(4-morpholinyl)-1,2,2′,3′,5′,6′-hexahydrospiro[indole-3,4′-thiopyran]-1′,1′-dioxide] | 64.4 |
| Cc1c(-c2ccccc2F)nc2cccc(Cl)c2c1N1CC(C)(C)c2ccc(N3CCOCC3)cc21 [5-chloro-4-(3,3-dimethyl-6-(4-morpholinyl)-2,3-dihydro-1H-indol-1-yl)-2-(2-fluorophenyl)-3-methylquinoline] | 890 |
| COc1cc2nc(C)c(C)c(N3CC(C)(C)c4ccc(N5CCOCC5)cc43)c2cc1Cl [6-chloro-4-(3,3-dimethyl-6-(4-morpholinyl)-2,3-dihydro-1H-indol-1-yl)-7-methoxy-2,3-dimethylquinoline] | 196 |
| Cc1nc2c(C(F)(F)F)cccc2c(N2CC(C)(C)c3ccc(N4CCOCC4)cc32)c1C [4-(3,3-dimethyl-6-(4-morpholinyl)-2,3-dihydro-1H-indol-1-yl)-2,3-dimethyl-8-(trifluoromethyl)quinoline] | 516 |
| Cc1nc2ccc(Cl)cc2c(N2CC3(CCOCC3)c3ccc(N4CCOCC4)cc32)c1C [1-(6-chloro-2,3-dimethyl-4-quinolinyl)-6-(4-morpholinyl)-1,2,2′,3′,5′,6′-hexahydrospiro[indole-3,4′-pyran]] | 73 |
| Cc1c(-c2ccccn2)nc2cc(F)ccc2c1N1CC(C)(C)c2nc(C#N)c(N3CCOCC3)cc21 [1-(7-fluoro-3-methyl-2-(2-pyridinyl)-4-quinolinyl)-3,3-dimethyl-6-(4-morpholinyl)-2,3-dihydro-1H-pyrrolo[3,2-b]pyridine-5-carbonitrile] | 49.5 |
| Cc1c(-c2ccccn2)nc2cc(F)ccc2c1N1CC(C)(C)c2nc(Br)c(N3CCOCC3)cc21 [4-(5-bromo-3,3-dimethyl-6-(4-morpholinyl)-2,3-dihydro-1H-pyrrolo[3,2-b]pyridin-1-yl)-7-fluoro-3-methyl-2-(2-pyridinyl)quinoline] | 33.3 |

The next molecules have a lower Ki than those just listed; values first:

| Ki [nM] | SMILES |
| --- | --- |
| 2.7 | Cc1c(N2CC(C)(C)CCC2=O)nc2cc(F)cc(F)c2c1N1CC2(CCOCC2)c2ncc(N3CCOCC3)cc21 [1-(5,7-difluoro-3-methyl-4-(6′-(4-morpholinyl)-2,3,5,6-tetrahydrospiro[pyran-4,3′-pyrrolo[3,2-b]pyridin]-1′(2′H)-yl)-2-quinolinyl)-5,5-dimethyl-2-piperidinone] |
| 2.87 | Cc1c(Cc2cccc(F)c2)nc2cc(F)cc(F)c2c1N1CC(C)(C)c2ncc(N3CCOCC3)cc21 [4-(3,3-dimethyl-6-(4-morpholinyl)-2,3-dihydro-1H-pyrrolo[3,2-b]pyridin-1-yl)-5,7-difluoro-2-(3-fluorobenzyl)-3-methylquinoline] |
| 13.3 | Cc1c(-c2ccccn2)nc2cc(F)ccc2c1N1CC2(CCOCC2)c2nc(Cl)c(N3CCOCC3)cc21 [5′-chloro-1′-(7-fluoro-3-methyl-2-(2-pyridinyl)-4-quinolinyl)-6′-(4-morpholinyl)-1′,2,2′,3,5,6-hexahydrospiro[pyran-4,3′-pyrrolo[3,2-b]pyridine]] |
| 5.4 | Cc1c(N2CCOC(C)(C)C2)nc2cc(F)cc(F)c2c1N1CC2(CCOCC2)c2ncc(N3CCOCC3)cc21 [1′-(2-(2,2-dimethyl-4-morpholinyl)-5,7-difluoro-3-methyl-4-quinolinyl)-6′-(4-morpholinyl)-1′,2,2′,3,5,6-hexahydrospiro[pyran-4,3′-pyrrolo[3,2-b]pyridine]] |
| 3 | Cc1cncc(-c2nc3cc(F)cc(F)c3c(N3CC(C)(C)c4ncc(N5CCOCC5)cc43)c2C)c1 [4-(3,3-dimethyl-6-(4-morpholinyl)-2,3-dihydro-1H-pyrrolo[3,2-b]pyridin-1-yl)-5,7-difluoro-3-methyl-2-(5-methyl-3-pyridinyl)quinoline] |
| 17.3 | Cc1c(Cc2cccc(C(F)(F)F)c2)nc2cc(F)cc(F)c2c1N1CC(C)(C)c2ncc(N3CCOCC3)cc21 [4-(3,3-dimethyl-6-(4-morpholinyl)-2,3-dihydro-1H-pyrrolo[3,2-b]pyridin-1-yl)-5,7-difluoro-3-methyl-2-(3-(trifluoromethyl)benzyl)quinoline] |
| 1.49 | COC(=O)N1CCN(c2nc3cc(F)cc(F)c3c(N3CC4(CCOCC4)c4ncc(N5CCOCC5)cc43)c2C)CC1 [methyl 4-(5,7-difluoro-3-methyl-4-(6′-(4-morpholinyl)-2,3,5,6-tetrahydrospiro[pyran-4,3′-pyrrolo[3,2-b]pyridin]-1′(2′H)-yl)-2-quinolinyl)-1-piperazinecarboxylate] |
| 3.33 | Cc1c(-c2ccccn2)nc2cccc(F)c2c1N1CC(C)(C)c2ncc(N3CCOCC3)cc21 [4-(3,3-dimethyl-6-(4-morpholinyl)-2,3-dihydro-1H-pyrrolo[3,2-b]pyridin-1-yl)-5-fluoro-3-methyl-2-(2-pyridinyl)quinoline] |
| 10.2 | Cc1c(-c2ccccc2S(C)(=O)=O)nc2cc(F)ccc2c1N1CC2(CCOCC2)c2ccc(N3CCOCC3)cc21 [1-(7-fluoro-3-methyl-2-(2-(methylsulfonyl)phenyl)-4-quinolinyl)-6-(4-morpholinyl)-1,2,2′,3′,5′,6′-hexahydrospiro[indole-3,4′-pyran]] |
| 4.07 | Cc1c(-c2ccccn2)nc2c(C)ccc(F)c2c1N1CC(C)(C)c2ncc(N3CCOCC3)cc21 [4-(3,3-dimethyl-6-(4-morpholinyl)-2,3-dihydro-1H-pyrrolo[3,2-b]pyridin-1-yl)-5-fluoro-3,8-dimethyl-2-(2-pyridinyl)quinoline] |
| 3.16 | Cc1c(-c2ccccn2)nc2cc(F)ccc2c1N1CC(C)(C)c2nc(Cl)c(N3CCOCC3)cc21 [4-(5-chloro-3,3-dimethyl-6-(4-morpholinyl)-2,3-dihydro-1H-pyrrolo[3,2-b]pyridin-1-yl)-7-fluoro-3-methyl-2-(2-pyridinyl)quinoline] |
| 4.64 | Cc1c(-n2ccccc2=O)nc2cc(F)cc(F)c2c1N1CC2(CCOCC2)c2ccc(N3CCOCC3)cc21 [1-(5,7-difluoro-3-methyl-4-(6-(4-morpholinyl)-2′,3′,5′,6′-tetrahydrospiro[indole-3,4′-pyran]-1(2H)-yl)-2-quinolinyl)-2(1H)-pyridinone] |
| 2.68 | Cc1nc2c(Cl)cccc2c(N2CC3(CCOCC3)c3ncc(N4CCOCC4)cc32)c1C [1′-(8-chloro-2,3-dimethyl-4-quinolinyl)-6′-(4-morpholinyl)-1′,2,2′,3,5,6-hexahydrospiro[pyran-4,3′-pyrrolo[3,2-b]pyridine]] |
| 2.9 | C=C(c1ccccc1)c1nc2cc(F)cc(F)c2c(N2CC(C)(C)c3ncc(N4CCOCC4)cc32)c1C [4-(3,3-dimethyl-6-(4-morpholinyl)-2,3-dihydro-1H-pyrrolo[3,2-b]pyridin-1-yl)-5,7-difluoro-3-methyl-2-(1-phenylethenyl)quinoline] |
| 1.62 | Cc1c(N2CCCCC2=O)nc2cc(F)ccc2c1N1CC2(CCOCC2)c2ncc(N3CCOCC3)cc21 [1-(7-fluoro-3-methyl-4-(6′-(4-morpholinyl)-2,3,5,6-tetrahydrospiro[pyran-4,3′-pyrrolo[3,2-b]pyridin]-1′(2′H)-yl)-2-quinolinyl)-2-piperidinone] |
| 18.4 | Cc1ccnc(-c2nc3cc(F)cc(F)c3c(N3CC(C)(C)c4ncc(N5CCOCC5)cc43)c2C)c1 [4-(3,3-dimethyl-6-(4-morpholinyl)-2,3-dihydro-1H-pyrrolo[3,2-b]pyridin-1-yl)-5,7-difluoro-3-methyl-2-(4-methyl-2-pyridinyl)quinoline] |
| 5.38 | Cc1c(-c2cccc(F)c2)nc2ncccc2c1N1CC(C)(C)c2ncc(N3CCOCC3)cc21 [4-(3,3-dimethyl-6-(4-morpholinyl)-2,3-dihydro-1H-pyrrolo[3,2-b]pyridin-1-yl)-2-(3-fluorophenyl)-3-methyl-1,8-naphthyridine] |
